Source: publication PMC12030062, “From In Vitro Cytotoxicity to In Vivo Zebrafish Assays: A Study on 3,3-Dichloro β-, γ- and δ-Lactams and Their Biological Activity Profiles” (Pharmaceuticals, 2025)
≈ marks a conversion by molar mass, not a printed value.

Key:
A431 cells = experiment: AO/EB double staining, cellular death events; format: cell-based, human; details: A431, 24 h, 10-160 µg/mL
[1] = tested on: A431 cell line (squamous cell carcinoma); experiment: Cell viability, MTT assay, A431; format: cell-based
Experimental: (§1) Two different endpoints, 3-(4,5-dimethyl-2-thiazolyl)-2,5-diphenyltetrazolium bromide (MTT) and neutral red uptake (NRU), were used to assess differences in cell-induced cytotoxicity. […] In addition, NRU evaluates the interaction of these drugs with the plasmatic membrane. Cell responses were determined from the MTT [16] and NRU [17] assays, using the two proposed cell lines. Cytotoxicity assays were performed at concentrations equal to 80 and 250 µg/mL. The IC50 value, referring to the half-maximal inhibitory concentration, was determined as a key parameter in cytotoxicity studies (Table 1). It plays a crucial role in evaluating cell viability and assessing cellular responses to various drugs or toxins. For cases where IC50 values were below 80 µg/mL, additional studies at lower concentrations were conducted to accurately determine these values. […] The selectivity index (SI), used as a measurement of action against the tumor cell line in comparison with a normal cell line, was also included.
(§2) • In Vitro Assay Using Human Erythrocytes • - Acquisition and Extraction of the Erythrocytes Human blood samples were obtained from the Banc de Sang i Teixits de Barcelona (Spain) from the Catalan Department of Health. Blood was deposited in tubes with the anticoagulant EDTA-K3. Blood samples were centrifuged at 3000 rpm and 4 °C for 10 min (Megafuge 2.0 R. Heraeus Instruments, Hanau, Germany) to induce sedimentation. Plasma was extracted with a Pasteur pipette. Next, the residual pellet was washed with PBS at pH 7.4. This procedure was repeated three times to remove residual leukocytes and platelets and to concentrate the erythrocytes. Following the last wash, the erythrocyte suspension was diluted (1:1) in PBS at pH 7.4 to obtain a suitable erythrocyte suspension (cell density of 8 × 10^9 cell/mL). • - Hemolysis Assay The hemolysis assay determined the capability of different compounds to induce the hemolysis of the erythrocyte membrane. Stock solutions of each compound at 1 mg/mL in PBS at pH 7.4 were prepared. Different volumes (10–80 μL) were placed in polystyrene tubes, and an aliquot of 25 µL of the erythrocyte suspensions was added to each tube. The final volume was 1 mL. The tubes were incubated at room temperature under rotatory conditions. Then, the tubes were centrifuged at 10,000 rpm for 5 min. The supernatants’ absorbance at 540 nm (Shimadzu UV-160A, Shimadzu, Duisburg, Germany) was compared with that of the positive (erythrocytes hemolyzed with distilled water) and negative (erythrocyte suspension in PBS at pH 7.4) controls. The degree of hemolysis was determined using the following equation: Hemolysis (%) = 100 × (Abs − Abs0)/(Abs100 − Abs0) where Abs, Abs0, and Abs100 are the absorbance of the test samples, of the suspension treated with isotonic phosphate–buffered saline (PBS), and of the suspension of complete hemolysis treated with distilled water, respectively. • In Vitro Essay Using Cell Cultures The murine Swiss albino fibroblasts (3T3) and the squamous cell carcinoma (A431) cell lines were obtained from Celltec UB. Cells were grown in DMEM medium (4.5 g/L glucose) supplemented with 10% (v/v) FBS, 2 mM L-glutamine, 100 U/mL penicillin, and 100 µg/mL streptomycin at 37 °C with 5% CO2. Cells were routinely cultured in 75 cm^2 culture flasks and were trypsinized using trypsin–EDTA when the cells reached approximately 80% confluence. The trypan blue assay, which allows for the direct identification and enumeration of the live (unstained) and dead (blue) cells in the cell population, was used to evaluate the viability of the cells in the cell suspension obtained. • - Cell Viability Assays Cell lines of 3T3 (1 × 10^5 cells/mL) and A431 (5 × 10^4 cells/mL) were grown at defined densities in the 60 central wells of a 96-well plate. The cells were incubated for 24 h in 5% CO2 at 37 °C. […]

[2] = tested on: A431 cell line (squamous cell carcinoma); experiment: Cell viability, NRU assay, A431; format: cell-based, human
Experimental: as §1, §2

CC(C)(C)N1C(=O)C(Cl)(Cl)C1c1ccccc1 (centres unmarked) [Compound 1]
mode of cell death (A431 cells): induces cell death primarily via apoptosis | IC50 (MTT) A431 ([1]; 24 h incubation, MTT endpoint, A431): 71.65 ± 1.23 µg/mL (≈ 263 µM) | IC50 ([1]; Homo sapiens, A-431, 24 h, 24 h incubation, MTT endpoint, A431, read-out: IC50 (MTT) A431): 71 µg/mL (≈ 261 µM) | SI (MTT), selectivity index ([1]; SI = IC50 (3T3)/IC50 (A431), MTT): 2.94 | selective cytotoxicity, A431 in comparison with 3T3 cells ([1]; lower IC50 for A431 than 3T3): some selective cytotoxicity | IC50 (NRU) A431 ([2]; 24 h incubation, NRU endpoint, A431): 35.74 ± 3.24 µg/mL (≈ 131 µM) | IC50 ([2]; Homo sapiens, A-431, 24 h, 24 h incubation, NRU endpoint, A431): 35 µg/mL (≈ 129 µM) | SI (NRU), selectivity index ([2]; SI = IC50 (3T3)/IC50 (A431), NRU): >>6.99
